Results: PubChem BioAssay AID463204 (Broad Institute, 2010)
Activity calls are given as the source filed them.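 Rule for the calls: active = AC50 no more than ten times the top concentration tested, that is within one log above it; inconclusive = flat curve fit with activity between 30% and 70%, or invalid poor fit; inactive = AC50 beyond ten times the top tested dose.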

system: S. cerevisiae Mot1-301 ts growth rescue, BacTiter-Glo ATP luminescence; assay: restored Mot1-301 yeast growth at 38.5C – whole organism, S. cerevisiae, Mot1-301 ts mutant, luminescence, dose retest, SUMOylation pathway inhibitor project, confirmation (AID 463204);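 note: growth at restrictive 38.5 degrees C of Mot1-301 OY566 strain; actives raise luminescence by restoring growth of the ts mutant at high temperature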

Row | SMILES | AC50
1 | C=C(C)Cc1c(C)c(C#N)c2[nH]c3ccccc3n2c1=O | > 42 µM (inactive)
2 | COC(=O)C1C(c2ccc(OC)c(OC)c2)NC(c2ccc(OC)c(OC)c2)C(C(=O)OC)S1(=O)=O (stereo not given) | > 42 µM (inactive)
3 | OC(COc1ccccc1)Cn1c2ccccc2c2ccccc21 (stereo not given) | 35.6 µM
4 | COc1ccc(C(=O)NCC(=O)Nc2ccccc2)cc1OC | > 42 µM (inactive)
5 | CC(=O)Nc1cc2nn(-c3ccccc3)nc2cc1Cl | > 42 µM (inactive)
6 | CCC(C)(C(=O)NC1CCCC1)N(C(=O)c1ccccn1)c1ccc(C)cc1 (stereo not given) | > 42 µM (inactive)
7 | COC(=O)c1ccccc1NC(NC(=O)c1ccco1)C(=O)c1ccccc1 (stereo not given) | > 42 µM (inactive)
8 | Cc1ccccc1C(=O)NNC(=S)Nc1cccc(C(F)(F)F)c1 | > 42 µM (inactive)
9 | COc1ccc([N+](=O)[O-])c2c(=O)ccoc12 | > 42 µM (inactive)
10 | CCOc1ccc(-c2nc(C#N)c(N3CCOCC3)o2)cc1 | > 42 µM (inactive)
11 | Cc1ccc(S(=O)(=O)CCC(=O)OCC(=O)N(C)C2CCS(=O)(=O)C2)cc1 (stereo not given) | > 42 µM (inactive)
12 | CC(=O)Nc1ccc(S(=O)(=O)Nc2cccc(-c3ccc4nncn4n3)c2)cc1 | > 42 µM (inactive)
13 | CCOC(=O)C1=Nc2ccccc2C1=[N+]=[N-] | 36.7 µM
14 | O=C1OC(Cc2ccccn2)C(O)=C1C1=NCCCN1 (stereo not given) | > 42 µM (inactive)
15 | CCCCNC(=O)c1ccccc1NC(=O)C1=C(C)OCCS1 | > 42 µM (inactive)
16 | CC(C(=O)Nc1ccccc1-c1ccccc1)N1CCN(Cc2ccccc2)CC1 (stereo not given) | > 42 µM (inactive)
17 | Cc1c(NC(=O)CN2C(=O)NC(C)(c3ccc(OC(F)F)cc3)C2=O)c(=O)n(-c2ccccc2)n1C (stereo not given) | > 42 µM (inactive)
18 | O=S(=O)(Cc1ccccc1)NCc1ccccn1 | > 42 µM (inactive)
19 | O=C(NCC1CCCO1)C1CC(c2ccc(Cl)c(Cl)c2)=NO1 (stereo not given) | > 42 µM (inactive)
20 | CCOc1ccc(CN(C)C(C)C(=O)NCc2ccccc2)cc1 (stereo not given) | > 42 µM (inactive)
21 | Cc1ccc(C)c(NC(=O)COC(=O)c2ccc3c(c2)OCO3)c1 | > 42 µM (inactive)
22 | C(=N\Nc1ccc2nncn2n1)/c1ccccn1 | > 42 µM (inactive)
23 | Oc1cccc(/C=N/N2CCN(c3ccccn3)CC2)c1 | > 21 µM (inactive)
24 | CN(C(=S)NC1=CCS(=O)(=O)C1)C1CCCCC1 | > 42 µM (inactive)
25 | CC(=O)Nc1cccc2c1C(=O)N(c1ccccc1C)C2=O | > 42 µM (inactive)

Row | SMILES | AC50
26 | COc1ccc2c(c1)c(CC(=O)OCC(N)=O)c(C)n2C(=O)c1ccc(Cl)cc1 | > 42 µM (inactive)
27 | C/C(N)=C(/C#N)C(=O)CSc1nnc(-c2ccccc2)n1C | > 42 µM (inactive)
28 | COc1ccc(CN2C(=O)C(=O)N(CC(N)=O)C2=O)cc1 | > 42 µM (inactive)
29 | Cn1c(C(=O)NCCc2ccsc2)cc2c(=O)n(C)c3ccccc3c21 | > 42 µM (inactive)
30 | Cc1ccccc1OCc1nc(-c2ccccc2)no1 | > 42 µM (inactive)
31 | O=C(Cn1nc(C(F)(F)F)c2c1CCCC2)N1CCOCC1 | > 42 µM (inactive)
32 | COCCn1c(SCc2ccc(Cl)cc2)nc2c1c(=O)[nH]c(=O)n2C | > 42 µM (inactive)
33 | COC(=O)Oc1ccc(/C=N/NS(=O)(=O)c2ccccc2)cc1OC | > 42 µM (inactive)
34 | CCOc1cc(-c2ccccc2)nc(N)n1 | > 42 µM (inactive)
35 | CCOC(=O)Cn1c(=O)oc2cc(S(=O)(=O)NC(C)(C)CC)ccc21 | > 42 µM (inactive)
36 | Cc1ccc2nc(/C(C#N)=C\c3cc(O)ccc3[N+](=O)[O-])[nH]c2c1 | > 42 µM (inactive)
37 | O=C(COC(=O)C1CC(=O)N(Cc2ccccc2)C1)Nc1ccccc1F (stereo not given) | > 21 µM (inactive)
38 | O=C(NNC(=O)c1csc(N2CCOCC2)n1)c1ccc(Cl)nc1 | > 42 µM (inactive)
39 | COC(=O)c1cn(C(=O)c2cccc3ccccc23)c2ccccc12 | > 42 µM (inactive)
40 | Cc1cc2c3c(c1)C1(SCC(=O)N1c1ccc(F)cc1)C(=O)N3C(C)(C)CC2C (stereo not given) | 6.97 µM
41 | CCCCN(C)C(=O)c1cc2c(Cl)nc3ccccc3c2s1 | > 42 µM (inactive)
42 | COc1cccc(OC)c1OCC(O)CN1CCN(c2ccccc2)CC1 (stereo not given) | > 42 µM (inactive)
43 | CCOc1cc(S(=O)(=O)NCc2ccc3c(c2)OCO3)c(C)cc1C | > 42 µM (inactive)
44 | CCOc1ccccc1Nc1nnc(SCc2nnc(-c3cc(OC)c(OC)c(OC)c3)o2)s1 | > 42 µM (inactive)
45 | O=C(CCSc1ccccc1)Nc1ncccn1 | > 42 µM (inactive)
46 | COc1ccc(NC(=O)c2ccc(-n3cncn3)c([N+](=O)[O-])c2)cc1 | > 21 µM (inactive)
47 | Fc1cccc(F)c1-c1nc(-c2ccncc2)no1 | > 42 µM (inactive)
48 | COc1ccccc1N1CCN(C(=O)c2ccc(N3CCCCS3(=O)=O)cc2)CC1 | > 42 µM (inactive)
49 | COc1ccc(NC(=O)CN(C)C(=O)/C=C/c2cn(-c3ccccc3)nc2-c2ccc(C)cc2)cc1 | > 42 µM (inactive)
50 | CCn1cc(C(=O)N2CCN(c3ccc(OC)cc3)CC2)c(=O)c2cc(S(=O)(=O)N3CCOCC3)ccc21 | > 42 µM (inactive)

Row | SMILES | AC50
51 | C=CCNc1nnc(SC2CC(=O)N(c3ccc(OCCC)cc3)C2=O)s1 (stereo not given) | 4.49 µM
52 | CCCCOc1ccc(CSC(=N)N)cc1Cl | > 42 µM (inactive)
53 | CN(C)c1ccc(C(CNS(=O)(=O)c2ccc([N+](=O)[O-])cc2)N2CCOCC2)cc1 (stereo not given) | > 42 µM (inactive)
54 | CCN(CC(=O)NCc1ccc(Cl)cc1)C(=O)/C=C/c1ccc(C#N)cc1 | > 42 µM (inactive)
55 | Cc1cc2nc(CCl)cc(=O)n2[nH]1 | > 42 µM (inactive)
56 | Cc1ccc(C)c(-n2nnnc2SCC(=O)Nc2c(C)n(C)n(-c3ccccc3)c2=O)c1 | > 42 µM (inactive)
57 | O=[N+]([O-])c1ccc(N/N=C/c2cccc(O)c2)cc1 | 29.4 µM
58 | Oc1c(Cl)cc(Cl)c(Cl)c1Cc1c(O)c(Cl)cc(Cl)c1Cl | 0.84 µM
59 | Cn1c(=O)c2c(ncn2CC(=O)OCC(=O)Nc2ccc(Cl)cc2)n(C)c1=O | > 42 µM (inactive)
60 | CCc1ccc(NC(=S)N(Cc2cccc(Br)c2)CC2CCC(C(=O)O)CC2)cc1 (stereo not given) | > 42 µM (inactive)
61 | CCOC(=O)c1c(N)sc(C(=O)N2CCCC(C(N)=O)C2)c1C (stereo not given) | > 42 µM (inactive)
62 | Cc1ccc(NC(=O)COc2ccccc2C(=O)NCCN(C)C)cc1 | > 42 µM (inactive)
63 | CCOC(=O)C1CCN(C(=O)c2ccc3c(c2)NC(=O)/C(=C/c2ccccc2)S3)CC1 | > 42 µM (inactive)
64 | COc1ccc2c(c1)OC[C@H]1[C@H]2N2C(=O)c3cc(OC)c(OC)cc3NC(=O)[C@@]2(C)[C@H]1c1ccccc1 | 5.49 µM
65 | Cc1c(Cl)c([N+](=O)[O-])nn1CC(=O)NC12CC3CC(CC(C3)C1)C2 | > 42 µM (inactive)
66 | CN1C(=S)SC2CS(=O)(=O)CC21C (stereo not given) | > 21 µM (inactive)
67 | COC(=O)c1cccc(NC(=O)CN(c2ccc3c(c2)OCO3)S(C)(=O)=O)c1C | > 42 µM (inactive)
68 | NC(=O)C1=C[C@@H](c2ccc(Br)cc2)C[C@@H](OCCCCO)O1 | > 42 µM (inactive)
69 | CSc1ccccc1NC(=O)COc1nsnc1N1CCOCC1 | > 42 µM (inactive)
70 | COc1ccc(C)cc1NC(=S)N1CCN(c2ccccn2)CC1 | > 42 µM (inactive)
71 | O=C(NCc1csc(-c2cccs2)n1)Nc1ccc(F)cc1F | > 42 µM (inactive)
72 | CC(C)C(=O)NNc1ccc(C(F)(F)F)cn1 | > 42 µM (inactive)
73 | CCOC(=O)C1=C[C@]2(CC)CCCN3CCc4c(n1c1ccccc41)[C@@H]32 | > 42 µM (inactive)
74 | O=C(Nc1ccc(F)cc1)c1ccc(CSc2ccccc2)o1 | > 42 µM (inactive)
75 | CCOc1ccc(CCNC(=O)COC(=O)COc2ccc(C(C)=O)cc2)cc1OCC | > 42 µM (inactive)

Row | SMILES | AC50
76 | Cc1[nH]oc(=O)c1N=Nc1c(Cl)cccc1Cl | 6.02 µM
77 | COc1ccccc1CCNC(=O)/C(=C/c1cccnc1)NC(=O)c1ccccc1 | > 42 µM (inactive)
78 | COc1ccc(OCC(=O)Nc2ccc(C)cc2)cc1 | > 42 µM (inactive)
79 | CCCNC(=O)CN(c1ccc(F)cc1)S(=O)(=O)c1ccc2c(c1)OCCO2 | > 42 µM (inactive)
80 | CCc1ccc2[nH]c(=O)c(C(c3nnnn3Cc3ccccc3)N3CCOCC3)cc2c1 (stereo not given) | > 42 µM (inactive)
81 | O=C(COC(=O)c1cccc(Br)c1)Nc1ccc2[nH]c(=O)[nH]c2c1 | > 42 µM (inactive)
82 | COc1cccc2[nH]c(=O)c(-c3ccccc3)cc12 | > 42 µM (inactive)
83 | CN1C(C(=O)Nc2ccccn2)=C(O)c2sccc2S1(=O)=O | > 42 µM (inactive)
84 | CCOC(=O)C1=C(N)c2ccccc2CC1C1CCCC1 (stereo not given) | > 42 µM (inactive)
85 | O=C1NC2(CCCCC2)NN1c1ccccc1 | > 42 µM (inactive)
86 | O=C(OCC(=O)N1CCN(c2ccccc2)CC1)c1nc(Cl)ccc1Cl | > 42 µM (inactive)
87 | O=C(CCCC(=O)N/N=C/c1ccccc1C(=O)O)N/N=C/c1ccccc1C(=O)O | > 42 µM (inactive)
88 | CCOC(=O)CS(=O)(=O)c1ccc2ccccc2c1 | > 42 µM (inactive)
89 | CCOC(=O)N1CCN(S(=O)(=O)c2ccc(Br)s2)CC1 | > 42 µM (inactive)
90 | CC1=Nc2ccccc2/C1=C\c1nc(-c2ccccc2)oc1O | > 42 µM (inactive)
91 | COc1ccc2c(c1)[C@H]1[C@H](CO2)[C@H](c2ccccc2)[C@]2(C)C(=O)Nc3cc(F)ccc3C(=O)N12 | 7.87 µM
92 | Cc1ccc(S(=O)(=O)NN2C(=O)c3ccccc3NC2c2ccccc2F)cc1 (stereo not given) | > 42 µM (inactive)
93 | O=C(OCc1ccccc1)c1cccc(-c2nnn(Cc3ccccc3)n2)c1 | > 42 µM (inactive)
94 | CCOc1ccccc1N(C(=O)c1snc(C(N)=O)c1N)C(CC)C(=O)NC1CCCC1 (stereo not given) | 41.7 µM
95 | COc1ccc(S(=O)(=O)N2CCN(c3ccc(F)cc3)CC2)cc1C(=O)N1CCOCC1 | > 42 µM (inactive)
96 | Cc1ccc(/C=C/C(=O)O)cc1S(=O)(=O)N(CCO)CCO | > 42 µM (inactive)
97 | Cc1cc(NC(=O)c2ccc(N3C(=O)CCC3=O)cc2)no1 | > 42 µM (inactive)
98 | OCC[C@@H]1C[C@H](O)[C@@H](O)[C@]2(CCc3ccccc3CO2)O1 | > 42 µM (inactive)
99 | Cc1nn(CC(N)=O)c(=O)c2ccccc12 | > 42 µM (inactive)
100 | CC(=O)Nc1ccccc1C(=O)C(=O)Nc1ccc(C(=O)NCC2CCCO2)cc1 (stereo not given) | > 42 µM (inactive)
